Measurements from US8258182B2, “Substituted 1,3-diphenylpropane derivatives, preparations and uses thereof” (Genfit, priority 2006, dated 2012).

Key:
ApoE2/E2 mice = test: Plasma lipids in dyslipidemic ApoE2/E2 mice after per os treatment; assay type: in vivo, mouse; settings: 50 mpk per os, 8 days
Experimental: The dyslipidemic E2/E2 mouse's rates of total cholesterol, of triglycerides, and plasma free fatty acids are measured after 8 or 14 days of a per os treatment with the compounds according to the invention.
The hypolipidemic properties of the compounds according to the invention are evaluated in vivo by assaying plasma lipids and the analysis of the PPARs target genes expression in the liver after a treatment treating of the dyslipidemic E2/E2 mice with the compounds according to the invention.
The murine model used is the ApoE2/E2 mouse, a transgenic mouse having the human apolipoprotein E isoform E2 (Sullivan P M et al., 1998). In human, this apolipoprotein, a constituent of low and very low density lipoproteins (LDL-VLDL), is present in three isoforms E2, E3, and E4. The E2 form presents a mutation affecting the amino acid in position 158, which considerably weakens the affinity of this protein for LDL receptors. Accordingly, the VLDL clearance is nearly non-existent. An accumulation of low-density lipoproteins then occurs along with a mixed hyperlipidemia known as type III (elevated cholesterol and triglycerides).
The ApoE2/E2 transgenic mice were kept on a 12 hour/12 hour light/dark cycle at a constant temperature of 20±3° C. After a one week acclimatization period, the mice were weighed and divided into groups of 6 animals selected so as to render uniform the distribution of their body weights and plasma lipid rates, determined before the experiment. The tested compounds were suspended in carboxymethylcellulose (Sigma C4888) and administered by intra-gastric tube feeding once a day for 8 days (for compound 1) or 14 days (for compound 8) with the chosen doses. […] Taking of food and weight gain are recorded throughout the experiment. […]
Plasma lipid concentrations (total cholesterol and triglycerides) are measured by enzymatic doses (bioMérieux-Lyon-France) according to the provider's recommendations.
Plasma cholesterol and triglycerides rates are measured after 8 or 14 days of a per os treatment with the compounds according to the invention. […]

[1] = tested on: PPARs target genes (PDK4, ApoCIII, ACO) in the hepatic tissue; test: Hepatic expression of PPAR target genes in E2/E2 mice (quantitative RT-PCR); assay type: in vivo, mouse; settings: 50 mpk
Experimental: The effectiveness of the compounds according to the invention is also evaluated by measuring, in the hepatic tissue, the expression of genes involved in lipid and/or glucids metabolism and in energy dissipation. Each level of genes expression is normalised regarding the expression level of the reference gene 36B4's. The induction factor, i.e. the ratio between the relative signal (induced by the compound according to the invention) and the average of the relative values relating to the control group is then calculated. The higher the induction factor is, the more the compound promotes hepatic gene expression. The final result is expressed as an average of the induction values obtained with each experimental group.
The PPARα agonist properties previously measured in vitro should, in the liver, lead to an overexpression of the target genes directly under the control of the PPARα: the genes we have studied in this experiment are PDK-4 (an enzyme involved in glucid metabolism), Apo CIII (an apolipoprotein involved in lipid metabolism), and Acox1 (in mice, Acox1 corresponds to the ACO gene in humans (Acyl Co-enzymeA Oxydase, an enzyme key to the fatty acid β-oxidation mechanism)). Measuring the transcriptional activity of PPARα target genes after a treatment with compounds according to the invention does therefore allow to evaluate the hypolipidemic properties of the compounds according to the invention.
The ApoE2/E2 transgenic mice were kept on a 12 hour/12 hour light/dark cycle at a constant temperature of 20±3° C. After a one week acclimatization period, the mice were weighed and divided into groups of 6 animals selected so as to render uniform the distribution of their body weights and plasma lipid rates, determined before the experiment. The tested compounds were suspended in carboxymethylcellulose (Sigma C4888) and administered by intra-gastric tube feeding once a day for 8 days (for compound 1) or 14 days (for compound 8) with the chosen doses. The animals had free access to food and water (standard diet). Taking of food and weight gain are recorded throughout the experiment. At the end of the experiment, the animals were anesthetized after a 4 hour fast, and a blood sample was taken using (EDTA) anticoagulant, then the mice were weighed and euthanized. The plasma was separated by centrifugation at 3000 rotations/minute for 20 minutes. The samples were kept at +4° C.
Liver samples were removed, frozen in liquid nitrogen, and kept at −80° C. for later analyses.
Total RNA is extracted from liver fragments by using the NucleoSpin® 96 RNA kit (Macherey Nagel, Hoerdt, France) according to the manufacturer's instructions.
1 μg of total RNA (quantified by using the Ribogreen RNA quantification kit (Molecular Probes)) is then reverse-transcripted into complementary DNA by means of a 1 hour reaction at 37° C. in a total volume of 20 μl containing a 1× buffer (Sigma), 1.5 mM of DTT, 0.18 mM of dNTPs (Promega), 200 ng of pdN6 (Amersham), 30U of RNase inhibitor (Sigma), and 1 μl of MMLV-RT (Sigma).
The PCR quantitative experiments were carried out using the MyiQ Single-Color Real-Time PCR Detection System (Biorad, Marnes-la-Coquette, France) and were performed using the iQ SYBR Green Supermix kit according to the manufacturer's recommendations, in 96-well trays in 5 μl of a diluted reverse transcription solution at a hybridation temperature of 55° C. The specific primer pairs of the genes studied were used: • PDK4: sense primer: 5′-[…]-3′ (SEQ ID NO: 1) and antisense primer 5′-[…]-3′ (SEQ ID NO: 2)) • ApoCIII: sense primer: 5′-[…]-3′ (SEQ ID NO: 3) and antisense primer 5′-[…]-3′ (SEQ ID NO: 4). • ACO: sense primer: 5′-[…]-3′ (SEQ ID NO: 5) and antisense primer: 5′-[…]-3′ (SEQ ID NO: 6)
The quantity of fluorescencet emitted is directly proportional to the quantity of cDNA present at the beginning of the reaction and amplified during the PCR. […]

## CSc1ccc(C(=O)CCc2cc(C)c(OC(C)(C)C(=O)O)c(C)c2)cc1 [Compound 1, 2-[2,6-dimethyl-4-[3-[4-(methylthio)phenyl]-3-oxo-propyl]phenoxyl]-2-methylpropanoic acid]
ApoE2/E2 mice; vs control animals (FIG. 2-1)
  plasma total cholesterol rates: very significantly decreased
ApoE2/E2 mice; vs control animals (FIG. 2-2)
  circulating triglycerides rates: very significantly decreased
[1]; 8 days (FIG. 2-4)
  hepatic expression of the gene coding for PDK4: significant increase
[1]; 8 days (FIG. 2-5)
  hepatic expression of the gene coding for ApoCIII: reduction
[1]; 8 days (FIG. 2-6)
  hepatic expression of genes coding for ACO: significant augmentation
